18 compounds from patent US12435072B2, “Compounds” (Vicore Pharma AB, priority 2019, dated 2025) can be followed below.

Data set [1] is described as follows: Metabolic stability in pooled human liver microsomes. Type of data set: in vitro ADME. The settings on record: pooled human liver microsomes 0.5 mg/ml, 1 μM test compound, 37° C. The method, then: Pooled human liver microsomes in PBS at a concentration of 0.5 mg/ml was incubated with or without 1 mM NADPH for 70 min at 37° C. Test compound was added after 10 minutes to a final concentration of 1 μM. Samples were withdrawn at 0, 5, 15 and 60 minutes and added to test tubes containing acetonitrile, to stop the reaction, and with terfenadine, used as internal standard. After centrifugation at 10 000×g for 5 minutes the supernatant was diluted 1:1 with 1% formic acid. Samples were separated on a reverse phase column and detected by triple quadrupole MSMS (Agilant model 6540). The concentration of the parent compound at the different time points was measured with an external standard curve using terfenadine as internal standard and the initial metabolic rate in the presence or absence of NADPH calculated.

The target of the next data set is T1, CYP2C8 (Homo sapiens, UniProt P10632).
T1 construct: incubated with human liver microsomes; tissue Eurofins ITEMG232; host or cells: human liver microsomes
T1 sequence (P10632 1-490): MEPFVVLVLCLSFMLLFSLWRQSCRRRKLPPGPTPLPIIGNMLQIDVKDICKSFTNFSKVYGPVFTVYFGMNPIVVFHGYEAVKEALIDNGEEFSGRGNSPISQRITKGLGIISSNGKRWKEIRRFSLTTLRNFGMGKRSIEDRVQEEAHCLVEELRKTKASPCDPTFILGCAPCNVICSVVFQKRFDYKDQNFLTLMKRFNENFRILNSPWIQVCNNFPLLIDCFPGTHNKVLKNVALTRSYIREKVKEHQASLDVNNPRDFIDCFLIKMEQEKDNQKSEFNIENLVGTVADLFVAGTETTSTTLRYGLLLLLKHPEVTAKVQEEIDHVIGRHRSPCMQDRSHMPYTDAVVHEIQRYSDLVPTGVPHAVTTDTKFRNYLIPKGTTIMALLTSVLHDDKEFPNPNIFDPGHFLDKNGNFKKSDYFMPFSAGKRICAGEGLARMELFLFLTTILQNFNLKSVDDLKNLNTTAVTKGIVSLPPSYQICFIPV
Briefly: CYP inhibition in human liver microsomes, CYP2C8. Type of data set: in vitro ADME. Conditions: probe paclitaxel and amodiaquine, substrate paclitaxel and amodiaquine, read-out: CYP2C8 Inh %. In short, it runs like this: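 Human liver microsomes were incubated with isoform-selective probe substrates: diclofenac for CYP2C9, dextromethorphan for CYP2D6, and paclitaxel and amodiaquine for CYP2C8. After incubation, metabolite formation was measured by HPLC-MS/MS as peak area response.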
(Liver microsomes are vesicles of endoplasmic reticulum, rich in cytochrome P450 enzymes.)

Setting [2] is: with 1 mM NADPH, read-out: T1/2, + NaDPH.
Where [3] appears, read: without NADPH, read-out: T1/2, no NaDPH.

Where two headings read alike, the source gives them in different places.

As to `Cc1nccn1Cc1ccc(-c2cc(CC(C)C)sc2S(=O)(=O)NC(=O)NCc2ccccc2)cc1` [Example 1, 1-benzyl-3-[[5-isobutyl-3-[4-[(2-methylimidazol-1-yl)methyl]phenyl]-2-thienyl]sulfonyl]urea], the results for the half-life at 1 μM in data set [1] (setting [2]) and in data set [1] (setting [3]) were 0.4 h and above 1 h, respectively. Further, on CYP2C8, the inhibition at 10 µM amounted to 40%.
With `Cc1nccn1Cc1ccc(-c2cc(CC(C)C)sc2S(=O)(=O)NC(=O)NCc2ccccn2)cc1` [Example 2, 3-(5-isobutyl-3-{p-[(2-Methyl-1H-imidazol-1-yl)methyl]phenyl}-2-thienylsulfonyl)-1-[(2-pyridyl)methyl]urea], the half-life at 1 μM in data set [1] (setting [2]) and in data set [1] (setting [3]) was above 1 h in each case. In addition, on CYP2C8, the inhibition at 10 µM was found to be 52.8%.
Take `CCCCNC(=O)NS(=O)(=O)c1sc(CC(C)C)cc1-c1ccc(Cn2ccnc2C)cc1` [Example 4, 1-Butyl-3-(5-isobutyl-3-{p-[(2-methyl-1H-imidazol-1-yl)methyl]phenyl}-2-thienylsulfonyl)-urea]: the half-life at 1 μM is 0.65 h in data set [1] (setting [2]) and above 1 h in data set [1] (setting [3]). The inhibition at 10 µM on CYP2C8 was 47.2%.
In the case of `Cc1nccn1Cc1ccc(-c2cc(CC(C)C)sc2S(=O)(=O)NC(=O)NCCCC(F)(F)F)cc1` [Example 5, 3-(5-isobutyl-3-{p-[(2-Methyl-1H-imidazol-1-yl)methyl]phenyl}-2-thienylsulfonyl)-1-(4,4,4-trifluorobutyl)-urea], the figures for the half-life at 1 μM in data set [1] (setting [2]) and in data set [1] (setting [3]) were 0.417 h and above 1 h, respectively. For the same compound, the inhibition at 10 µM on CYP2C8 was found to be 49.3%.
For `CCc1nccn1Cc1ccc(-c2cc(CC(C)C)sc2S(=O)(=O)NC(=O)NCc2ccccc2)cc1` [Example 6, 1-Benzyl-3-(3-{p-[(2-ethyl-1H-imidazol-1-yl)methyl]phenyl}-5-isobutyl-2-thienylsulfonyl)-urea] the same measures were 0.4 h, above 1 h and 76.2%.
Taken in the same sequence, the figures for `CCc1nccn1Cc1ccc(-c2cc(CC(C)C)sc2S(=O)(=O)NC(=O)NCCOC)cc1` [Example 7, 3-(3-{p-[(2-Ethyl-1H-imidazol-1-yl)methyl]phenyl}-5-isobutyl-2-thienylsulfonyl)-1-(2-methoxy-ethyl)urea] were above 1 h, above 1 h and 38.6%.
For `Cc1nccn1Cc1ccc(-c2cc(CC(C)C)sc2S(=O)(=O)NC(=O)NCc2ccccn2)cc1F` [Example 13, 3-(3-{3-Fluoro-4-[(2-methyl-1H-imidazol-1-yl)methyl]phenyl}-5-isobutyl-2-thienylsulfonyl)-1-[(2-pyridyl)methyl]urea] the same measures were above 1 h, above 1 h and 77%.
On to `Cc1nccn1Cc1ccc(-c2cc(CC(C)C)sc2S(=O)(=O)NC(=O)NCCC(F)(F)F)cc1F` [Example 14, 3-(3-{3-Fluoro-4-[(2-methyl-1H-imidazol-1-yl)methyl]phenyl}-5-isobutyl-2-thienylsulfonyl)-1-(3,3,3-trifluoropropyl)urea], for which the half-life at 1 μM was 1.5 h in data set [1] (setting [2]) and above 1 h in data set [1] (setting [3]). Moreover, on CYP2C8, the inhibition at 10 µM turned out to be 78%.
Taken in the same sequence, the figures for `Cc1nccn1Cc1ccc(-c2cc(CC(C)C)sc2S(=O)(=O)NC(=O)NCc2nccn2C)cc1F` [Example 15, 1-(3-{3-Fluoro-4-[(2-methyl-1H-imidazol-1-yl)methyl]phenyl}-5-isobutyl-2-thienylsulfonyl)-3-[(1-methyl-1H-imidazol-2-yl)methyl]urea] were above 1 h, above 1 h and 48%.
For `Cc1nccn1Cc1ccc(-c2cc(CC(C)C)sc2S(=O)(=O)NC(=O)NC(C)c2ccccn2)cc1F` (stereo not drawn) [Example 25, 3-(3-{3-Fluoro-4-[(2-methyl-1H-imidazol-1-yl)methyl]phenyl}-5-isobutyl-2-thienylsulfonyl)-1-[1-(2-pyridyl)ethyl]urea] the same measures were 1 h, above 1 h and 56%.
Regarding `CCc1nccn1Cc1ccc(-c2cc(CC(C)C)sc2S(=O)(=O)NC(=O)NCc2ccc(F)cc2)cc1F.O=C(O)C(F)(F)F` [Example 32, 3-[(3-{4-[(2-ethyl-1H-imidazol-1-yl)methyl]-3-fluorophenyl}-5-(2-methylpropyl)thiophen-2-yl)sulfonyl]-1-[(4-fluorophenyl)methyl] urea trifluoroacetic acid], the figures for the half-life at 1 μM in data set [1] (setting [2]) and in data set [1] (setting [3]) were 0.117 h and above 1 h, respectively. On CYP2C8, the inhibition at 10 µM was determined as 65%.
Taken in the same sequence, the figures for `CCCNC(=O)NS(=O)(=O)c1sc(CC(C)C)cc1-c1ccc(Cn2ccnc2CC)c(F)c1.O=C(O)C(F)(F)F` [Example 33, 1-[(3-{4-[(2-ethyl-1H-imidazol-1-yl)methyl]-3-fluorophenyl}-5-(2-methylpropyl)thiophen-2-yl)sulfonyl]-3-propylurea trifluoroacetic acid] were above 1 h, above 1 h and 69%.
Taken in the same sequence, the figures for `Cc1nccn1Cc1ccc(-c2cc(CC(C)C)sc2S(=O)(=O)NC(=O)NCc2ccc(F)c(F)c2)cc1F.O=C(O)C(F)(F)F` [Example 34, 1-[(3,4-difluorophenyl)methyl]-3-[(3-{3-fluoro-4-[(2-methyl-1H-imidazol-1-yl)methyl]phenyl}-5-(2-methylpropyl)thiophen-2-yl)sulfonyl]urea trifluoroacetic acid] were 0.1 h, above 1 h and 64%.
For `Cc1nccn1Cc1ccc(-c2cc(CC(C)C)sc2S(=O)(=O)NC(=O)NCc2cccs2)cc1F.O=C(O)C(F)(F)F` [Example 35, 1-[(3-{3-fluoro-4-[(2-methyl-1H-imidazol-1-yl)methyl]phenyl}-5-(2-methylpropyl)thiophen-2-yl)sulfonyl]-3-[(thiophen-2-yl)methyl]urea trifluoroacetic acid] the same measures were 0.75 h, above 1 h and 56%.
Regarding `Cc1nccn1Cc1ccc(-c2cc(CC(C)C)sc2S(=O)(=O)NC(=O)NCc2cc(Cl)ccn2)cc1F.O=C(O)C(F)(F)F` [Example 38, 1-[(4-chloropyridin-2-yl)methyl]-3-[(3-{3-fluoro-4-[(2-methyl-1H-imidazol-1-yl)methyl]phenyl}-5-(2-methylpropyl)thiophen-2-yl)sulfonyl]urea trifluoroacetic acid], the half-life at 1 μM is 0.45 h in data set [1] (setting [2]) and above 1 h in data set [1] (setting [3]). For the same compound, the inhibition at 10 µM on CYP2C8 was 62%.
Taken in the same sequence, the figures for `Cc1nccn1Cc1ccc(-c2cc(CC(C)C)sc2S(=O)(=O)NC(=O)NCC(C)C)cc1F.O=C(O)C(F)(F)F` [Example 39, 1-[(3-{3-fluoro-4-[(2-methyl-1H-imidazol-1-yl)methyl]phenyl}-5-(2-methylpropyl)thiophen-2-yl)sulfonyl]-3-(2-methylpropyl)urea trifluoroacetic acid] were 1 h, above 1 h and 51%.
`Cc1nccn1Cc1ccc(-c2cc(CC(C)C)sc2S(=O)(=O)NC(=O)NCC2CCC(F)(F)CC2)cc1F.O=C(O)C(F)(F)F` [Example 40, 1-[(4,4-difluorocyclohexyl)methyl]-3-[(3-{3-fluoro-4-[(2-methyl-1H-imidazol-1-yl)methyl]phenyl}-5-(2-methylpropyl)thiophen-2-yl)sulfonyl]urea trifluoroacetic acid]: the half-life at 1 μM was 0.0667 h in data set [1] (setting [2]) and above 1 h in data set [1] (setting [3]). Further, the inhibition at 10 µM on CYP2C8 is 64%.
For `CC(C)Cc1cc(-c2ccc(Cn3ccnc3C(C)C)c(F)c2)c(S(=O)(=O)NC(=O)NCCC(F)(F)F)s1.O=C(O)C(F)(F)F` [Example 41, 1-{[3-(3-fluoro-4-{[2-(propan-2-yl)-1H-imidazol-1-yl]methyl}phenyl)-5-(2-methylpropyl)thiophen-2-yl]sulfonyl}-3-(3,3,3-trifluoropropyl)urea trifluoroacetic acid] the same measures were 0.717 h, above 1 h and 76%.
